US20050124589A1, “New use, pharmaceutical preparations as well as a process for their production” (priority 2003, published 2005)

What was measured:
[1] = cited from earlier work
[2] = Physical storage stability of aqueous Ifosfamide concentrates with Mesna as solubility-enhancing agent; format: physicochemical; settings: Mesna as solubility-enhancing agent in Ifosfamide concentrates
Experimental: The ratios refer to the proportions by weight of the substances in the solution. The solutions are homogenized, sterilized by filtration and filled under aseptic conditions. Production is carried out under nitrogen. These solutions can also be lyophilized in order to obtain a longer storage life of the pharmaceutical preparation. In addition to the auxiliary agents that are set forth in the examples, the solution can contain also further substances, e.g. sodium chloride, Mannitol, lactose, polyethylenglycol, ethanol, glucose, disaccharide, cyclodextrine.
In the manufacture, 90% of the Water for Injection is cooled to about 5° C. to 10° C., to which is dissolved the phosphate buffer; the Mesna is subsequently added and is homogeneously dissolved. […] The solution so obtained is brought to the specified weight with the cooled Water for Injection, sterile-filtered and filled in injection vials under aseptic conditions. Sterilization and filling are not carried out under cooling.
The making of Examples 4, 5 and 6 is carried out analogously to the description of Example 1.

| Structure (SMILES) | solubility in water (saturation concentration) ([1]; water, room temperature) | solubility of Ifosfamide lowered by addition of auxiliary agents ([1]; with auxiliary agents added) | physical stabilization of Ifosfamide solution [2] |
| --- | --- | --- | --- |
| O=P1(NCCCl)OCCCN1CCCl (stereo not drawn) [Ifosfamide, 2-(chlorethylamino)-3-(2-chlorethyl)-tetrahydro-2H-1,3,2-oxazaphosphorin-2-oxide] | about 140 mg/mL | under 10 % (wt/vol) |  |
| O=S(=O)(O)CCS [Mesna, mercaptoethane sulfonate-sodium] |  |  | prevents crystallization |
